The source of these data is PMC5681660, “Reduced hepatitis B and D viral entry using clinically applied drugs as novel inhibitors of the bile acid transporter NTCP” (Scientific Reports, 2017).

Counter-ions that a name gives are not always drawn.

The test deals with T1, human NTCP (Homo sapiens, UniProt Q14973).
T1 sequence (Q14973 1-349): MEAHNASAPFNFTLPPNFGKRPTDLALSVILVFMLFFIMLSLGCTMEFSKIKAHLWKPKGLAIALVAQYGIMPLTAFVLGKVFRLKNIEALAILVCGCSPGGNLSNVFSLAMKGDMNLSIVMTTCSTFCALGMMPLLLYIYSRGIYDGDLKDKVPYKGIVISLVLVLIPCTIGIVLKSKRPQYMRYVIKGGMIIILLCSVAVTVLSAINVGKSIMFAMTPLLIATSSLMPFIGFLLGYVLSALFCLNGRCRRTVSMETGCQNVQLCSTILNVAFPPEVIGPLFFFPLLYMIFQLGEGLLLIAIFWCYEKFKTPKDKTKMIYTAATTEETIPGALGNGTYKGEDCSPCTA
The test is described as follows: Screening taurocholate uptake assay (96-well, [14C]taurocholate, 10 µM drug). Conditions: for B-score functional assay: screening taurocholate uptake, 10 µM drug.

The mark [1] stands for this setting: combined ranking of functional and binding screening assays.
[2] abbreviates: ranking over the functional and the binding screening assay.

Compound `C[C@@H]1C[C@@H]([C@H](O)CC2CC(=O)NC(=O)C2)C(=O)[C@@H](C)C1` [Cycloheximide] gave a B-score functional assay of 0.172. Also, the Ranking score under setting [1] was 464.697.

For `CCc1cccc(CC)c1NC(=O)CN(CC(=O)O)CC(=O)O` [Etifenin], the B-score functional assay is given as -0.065. Moreover, under setting [1], the Ranking score was 532.717.

`Nc1ccc(S(=O)(=O)c2ccc(N)cc2)cc1` [Dapsone] had a B-score functional assay of 0.012. The compound further returned a Ranking score under setting [2] of 186.888.

Compound `CCN(CC)CCNc1ccc(CO)c2sc3ccccc3c(=O)c12` [Hycanthone] came in with a B-score functional assay of -0.266. Under setting [1], the Ranking score is 491.684.

The compound `CCOC(=O)C1=C(C)NC(C)=C(C(=O)OC)C1c1cccc(Cl)c1Cl` (stereo not shown) [Felodipine] had a B-score functional assay of 1.073. Under setting [1], the Ranking score is recorded as 465.188.

`[H]/N=C(/N)N/C(=N/[H])NCCc1ccccc1` [Phenformin hydrochloride] yielded a B-score functional assay of 0.533. This compound also returned a Ranking score under setting [2] of 172.511.

Consider `Nc1ccc(S(=O)(=O)NC(=O)c2ccccc2)cc1` [Sulfabenzamide], for which the B-score functional assay was 0.164. Further, under setting [1], the Ranking score is listed as 563.848.

`COC(=O)Nc1nc2ccc(SC(C)C)cc2[nH]1` [Methiazole] registered a B-score functional assay of -0.825. In addition, the Ranking score under setting [2] was 275.739.

Turning to `C[C@]12CC[C@@H]3c4ccc(OS(=O)(=O)O)cc4CC[C@H]3[C@@H]1CCC2=O` [Estropipate], the B-score functional assay is reported as -4.027. The Ranking score under setting [2] is reported as 54.037.

As to `CCC(COC(=O)c1cc(OC)c(OC)c(OC)c1)(c1ccccc1)N(C)C` (stereo not shown) [Trimebutine], the B-score functional assay is -0.018. Besides, the Ranking score under setting [1] worked out at 579.884.

As for `CC1=C(/C=C/C(C)=C/C=C/C(C)=C\C(=O)O)C(C)(C)CCC1` [Isotretinoin], the B-score functional assay is given as -0.503. Under setting [2], this compound displayed a Ranking score of 204.751.

In turn, `Cc1cccc(C)c1NC(=O)CN1CCN(CCCC(c2ccc(F)cc2)c2ccc(F)cc2)CC1` [Lidoflazine] registered a B-score functional assay of -0.817. For the same compound, under setting [1], the Ranking score was 479.588.

As for `C=CCOC(Cn1ccnc1)c1ccc(Cl)cc1Cl` (stereo not shown) [Enilconazole], the B-score functional assay is recorded as -0.129. For the same compound, the Ranking score under setting [1] was 592.625.

The compound `CC(=O)OC1CN2CCC1CC2` (stereo not shown) [Aceclidine Hydrochloride] returned a B-score functional assay of -1.773. This compound also had a Ranking score under setting [2] of 189.214.

`O=S(=O)(O)CCS` [Mesna] displayed a B-score functional assay of -1.329. The compound also registered a Ranking score under setting [2] of 127.75.

The compound `Clc1ccc(CCC(Cn2ccnc2)Sc2c(Cl)cccc2Cl)cc1` (stereo not shown) [Butoconazole nitrate] came in with a B-score functional assay of -3.692. Under setting [2], this compound yielded a Ranking score of 196.25.

The compound `CCOC(=O)[N-]c1cn(N2CCOCC2)n[o+]1` [Molsidomine] gave a B-score functional assay of 0.63. The Ranking score under setting [1] came out at 467.403.

Take `CC(=O)NC[C@H]1CN(c2ccc(N3CCOCC3)c(F)c2)C(=O)O1` [Linezolid]: the B-score functional assay was -1.549. Also, the Ranking score under setting [2] was found to be 172.974.

`CC(=O)OCC(=O)[C@@]12OC3(CCCC3)O[C@@H]1C[C@H]1[C@@H]3CCC4=CC(=O)C=C[C@]4(C)[C@@]3(F)[C@@H](O)C[C@@]12C` [Amcinonide]: the B-score functional assay is 0.343. In addition, the Ranking score under setting [1] is reported as 530.494.

On to `CCCOc1cc(N)ccc1C(=O)OCCN(CC)CC` [Propoxycaine hydrochloride], for which the B-score functional assay is -2.561. Moreover, the Ranking score under setting [2] was determined as 73.2735.

For `N=C(N)NC(=O)Cc1c(Cl)cccc1Cl` [Guanfacine hydrochloride], the B-score functional assay turned out to be 0.703. The Ranking score under setting [1] was 635.421.

In the case of `Cc1c(O)cccc1C(=O)N[C@@H](CSc1ccccc1)[C@H](O)CN1C[C@H]2CCCC[C@H]2C[C@H]1C(=O)NC(C)(C)C` [Nelfinavir mesylate], the B-score functional assay is recorded as -3.419. For the same compound, the Ranking score under setting [2] came out at 28.9828.

`C[C@]12C=CC(=O)C=C1CC[C@@H]1[C@@H]2[C@@H](O)C[C@@]2(C)[C@H]1CC[C@]2(O)C(=O)CO` [Prednisolone] came in with a B-score functional assay of -0.52. Under setting [1], the Ranking score came to 486.999.

Compound `Nc1ccc(S(=O)(=O)Nc2ccc(Cl)nn2)cc1` [Sulfachloropyridazine] came in with a B-score functional assay of 0.615. In addition, the Ranking score under setting [1] is 530.669.

For the compound `CCCCC1(COC(=O)CCC(=O)O)C(=O)N(c2ccccc2)N(c2ccccc2)C1=O` [Suxibuzone], the Ranking score under setting [1] is 1138. Besides, where the note is “B-score”, the B-score functional assay is listed as 1.433.

The compound `CC(=O)[C@H]1CC[C@H]2[C@@H]3C=CC4=CC(=O)CC[C@@]4(C)[C@@H]3CC[C@]12C` [Dydrogesterone] gave a B-score functional assay of -1.016. Under setting [1], the Ranking score is on record as 511.223.

The compound `COc1cc(N)c(Cl)cc1C(=O)NC1CCN(CCCOc2ccc(F)cc2)CC1OC` (stereo not shown) [Cisapride] showed a B-score functional assay of -0.847. For the same compound, the Ranking score under setting [2] is on record as 235.1.

In turn, `CCN(C)C(=O)Oc1cccc([C@H](C)N(C)C)c1` [Rivastigmine] showed a B-score functional assay of -0.006. Also, under setting [1], the Ranking score was 642.937.

In turn, `CC(=O)OCC(CCn1cnc2cnc(N)nc21)COC(C)=O` [Famciclovir] returned a B-score functional assay of 0.016. The Ranking score under setting [1] is on record as 539.09.

In turn, `CCN(C(C)=O)c1cccc(-c2ccnc3c(C#N)cnn23)c1` [Zaleplon] came in with a B-score functional assay of 1.229. Also, the Ranking score under setting [1] came to 584.018.

On to `CC1Cc2ccccc2N1NC(=O)c1ccc(Cl)c(S(N)(=O)=O)c1` (stereo not shown) [Indapamide], for which the B-score functional assay is reported as -0.108. Moreover, the Ranking score under setting [1] is on record as 559.557.

`CCNCC(O)c1cccc(O)c1` (stereo not shown) [Etilefrine hydrochloride] had a B-score functional assay of -0.021. The Ranking score under setting [1] worked out at 503.552.

`Cc1ncc([N+](=O)[O-])n1CC(C)O` (stereo not shown) [Secnidazole] had a B-score functional assay of -0.391. In addition, the Ranking score under setting [1] was found to be 548.521.

`c1ccc(-c2ccc(C(c3ccccc3)n3ccnc3)cc2)cc1` (stereo not shown) [Bifonazole] showed a B-score functional assay of -2.294. Besides, the Ranking score under setting [2] came to 164.499.

Compound `Cc1cc(CC(=O)[O-])n(C)c1C(=O)c1ccc(Cl)cc1.[Na+]` [Zomepirac sodium salt] displayed a B-score functional assay of -0.802. Moreover, the Ranking score under setting [1] is recorded as 527.712.

For the compound `[H]/N=C(/N)N[C@H]1[C@H](O)[C@@H](O)[C@H](O[C@@H]2O[C@@H](C)[C@](O)(C=O)[C@H]2O[C@@H]2O[C@@H](CO)[C@H](O)[C@@H](O)[C@@H]2NC)[C@@H](N/C(N)=N\[H])[C@@H]1O` [Streptomycin sulfate], the B-score functional assay was determined as 1.326. The Ranking score under setting [2] was 115.983.

For the compound `CCCc1nc2c(C)cc(-c3nc4ccccc4n3C)cc2n1Cc1ccc(-c2ccccc2C(=O)O)cc1` [Telmisartan], the B-score functional assay is recorded as -4.106. Further, the Ranking score under setting [2] worked out at 165.804.

In turn, `CC(=O)O[C@H]1C[C@H](O[C@H]2[C@@H](O)C[C@H](O[C@H]3[C@@H](O)C[C@H](O[C@H]4CC[C@@]5(C)[C@H](CC[C@@H]6[C@@H]5C[C@@H](O)[C@]5(C)[C@@H](C7=CC(=O)OC7)CC[C@]65O)C4)O[C@@H]3C)O[C@@H]2C)O[C@H](C)[C@H]1O[C@@H]1O[C@H](CO)[C@@H](O)[C@H](O)[C@H]1O` [Lanatoside C] yielded a B-score functional assay of -0.511. In addition, the Ranking score under setting [1] is recorded as 583.598.

With `C[C@@H]1CN(c2c(F)c(N)c3c(=O)c(C(=O)O)cn(C4CC4)c3c2F)C[C@H](C)N1` [Sparfloxacin], the B-score functional assay is on record as -2.411. The compound further came in with a Ranking score under setting [2] of 231.849.

Turning to `COc1cc2ncnc(Nc3ccc(F)c(Cl)c3)c2cc1OCCCN1CCOCC1` [Gefitinib], the B-score functional assay was determined as 0.784. Also, the Ranking score under setting [1] is reported as 629.087.

`CC(=O)OCC(=O)[C@@]1(O)[C@H](C)C[C@H]2[C@@H]3CCC4=CC(=O)C=C[C@]4(C)[C@@]3(F)[C@@H](O)C[C@@]21C` [Dexamethasone acetate] had a B-score functional assay of 0.046. Also, the Ranking score under setting [1] came out at 586.678.

`N[C@@H](Cc1ccc(O)c(O)c1)C(=O)O` [Levodopa] displayed a B-score functional assay of 0.049. The same compound showed a Ranking score under setting [2] of 265.141.

In turn, `O=C(O)CCCC[C@@H]1SC[C@@H]2NC(=O)N[C@@H]21` [Biotin] yielded a B-score functional assay of -2.274. This compound registered a Ranking score under setting [2] of 66.9328.

`CCCC(C(=O)OCCN(CC)CC)(c1ccccc1)c1ccccc1` [Proadifen hydrochloride] displayed a B-score functional assay of -1.354. Moreover, under setting [1], the Ranking score amounted to 468.828.

`CN[C@@H]1[C@H](O)[C@H](NC)[C@H]2O[C@@]3(O)C(=O)C[C@@H](C)O[C@H]3O[C@@H]2[C@H]1O.Cl.Cl` [Spectinomycin dihydrochloride] showed a B-score functional assay of -0.865. This compound showed a Ranking score under setting [2] of 126.98.

`CC(C)(C)NCC(O)c1cc(Cl)c(N)c(Cl)c1` (stereo not shown) [Clenbuterol hydrochloride] displayed a B-score functional assay of -0.705. The Ranking score under setting [1] worked out at 497.397.

`CN(C)CCOC(=O)C(c1ccccc1)C1(O)CCCC1` (stereo not shown) [Cyclopentolate hydrochloride] came in with a B-score functional assay of -0.521. Also, under setting [1], the Ranking score is reported as 624.063.
